Tests used:
PCK rat cholangiocytes = test: Proliferation assay, PCK rat cholangiocytes (MTS / cell counting); type: cell-based; details: for reduction of proliferation of PCK cholangiocytes: day 3, MTS
Description: For in vitro experiments, cholangiocytes were isolated from control rats, PCK rats (an animal model for […], LaRusso N F: Development and characterization of polarized primary cultures of rat intrahepatic bile duct epithelial cells, Lab Invest 1996, 74:303-313), healthy human beings and ADPKD patients (Masyuk et al. Biliary exosomes influence cholangiocyte regulatory mechanisms and proliferation through interaction with primary cilia, Am J Physiol Gastrointest Liver Physiol (2010) 299:G990-999; O'Hara et al. Cholangiocyte N-Ras protein mediates lipopolysaccharide-induced interleukin 6 secretion and proliferation, J Biol Chem (2011) 286:30352-30360; Banales et al. Up-regulation of microRNA 506 leads to decreased Cl(-)/HCO(3) (-) anion exchanger 2 expression in biliary epithelium of patients with primary biliary cirrhosis, Hepatology (2012) 56(2):687-97). Cholangiocytes were cultured in Collagen-I-coated flasks (BD Biocoat). All cell lines were incubated in NRC Media at 37° C., 5% CO2, 100% humidity. NRC Media contains Dulbecco's modified Eagle medium/F12 with the following additions: 0.01 mL/mL Minimum Essential Media (MEM) nonessential amino acids, 0.01 mL/mL lipid concentrate, 0.01 mL/mL MEM vitamin solution, 2 mmol/L L-glutamine, 0.05 mg/mL soybean trypsin inhibitor, 0.01 mL/mL insulin/transferring/selenium-S, 5% fetal bovine serum, […] bovine pituitary extract, 25 ng/mL epidermal growth factor, 393 ng/mL dexamethasone, […] 3,3-,5-triiodo-L-thyronine, 4.11 µg/mL forskolin, and 1% penicillin-streptomycin. […] The drug vehicle, DMSO, was suspended in NRC Media as a control. Cell proliferation was assessed with the CellTiter 96 AQueous One Solution (MTS; Promega) and/or counting cells using the Cellometer Auto T4 Cell Counter (Nexcelom Bioscience).

[1] = tested on: normal (NRC) cholangiocytes; test: Proliferation assay, normal rat cholangiocytes (NRC); type: cell-based; details: 2, 4, and 8 μmol/L (FIG. 4A)
Description: (§1) For in vitro experiments, cholangiocytes were isolated from control rats, PCK rats (an animal model for ARPKD; Vroman B, LaRusso N F: Development and characterization of polarized primary cultures of rat intrahepatic bile duct epithelial cells, Lab Invest 1996, 74:303-313), healthy human beings and ADPKD patients (Masyuk et al. Biliary exosomes influence cholangiocyte regulatory mechanisms and proliferation through interaction with primary cilia, Am J Physiol Gastrointest Liver Physiol (2010) 299:G990-999; O'Hara et al. Cholangiocyte N-Ras protein mediates lipopolysaccharide-induced interleukin 6 secretion and proliferation, J Biol Chem (2011) 286:30352-30360; Banales et al. Up-regulation of microRNA 506 leads to decreased Cl(−)/HCO(3) (−) anion exchanger 2 expression in biliary epithelium of patients with primary biliary cirrhosis, Hepatology (2012) 56(2):687-97).
Cholangiocytes were cultured in Collagen-I-coated flasks (BD Biocoat). […]
Control and PCK rat cholangiocytes were cultured on Collagen-I-coated flasks (BD Biocoat) using NRC Media, detached with 0.25% Trypsin-EDTA (GIBCO), transferred to Collagen-I-coated 96-well plates (10 000 cells/well) and incubated at 37° C., 5% CO2, 100% humidity. […] Cell proliferation was assessed with the CellTiter 96 AQueous One Solution (MTS; Promega) and/or counting cells using the Cellometer Auto T4 Cell Counter (Nexcelom Bioscience).

β-catenin [2] = test: Immunofluorescence of β-catenin in PCK cholangiocytes; type: cell-based, rat; details: nucleus and cytoplasm (FIG. 6B)
PCK rat = PCK rat model of polycystic liver disease, cystic area and fibrosis; type: in vivo
Description: Bar=2500 μm. FIG. 4C, quantification analysis of cystic area expressed as percentage of total parenchyma area. *p<0.05.
The PCK rat model was used because the genetic mutation in this animal is orthologous to that found in human ARPKD. These animals express many of the characteristics of human […] (Lager D J, et al., Kidney Internat 59: 126-136, 2001; Harris, Curr Opin Nephrol Hypertens 11:309-314, 2002). The animals carrying this mutation present with both kidney and liver fibrocystic disease and these animals live long enough to facilitate long-term treatment protocols (Gattone V. H., et al., Nat Med (2003) 9: 1323-1326; Tones V. E., et al., Nat Med (2004) 10:363-364; Masyuk T. V., et al., Gastroenterology (2007) 132:1104-1116, 2007. Female animals show more severe liver disease than male animals.
The efficacy of the Compound A-1 was then tested in a PCK rat, an animal model of polycystic liver disease.

Male PKC-1 rats = test: Kidney cyst volume in male PCK-1 rats, oral gavage 12 weeks; type: in vivo, rat; details: oral gavage once daily for 12 weeks; histological analysis
Experimental: Male PKC-1 rats (4 weeks old, n=12) were treated by oral gavage once daily with the indicated dose of compounds for 12 weeks. The animals were sacrificed and kidneys were removed and fixed in formalin. The volume of cysts in the kidneys was measured by histological analysis (see FIG. 7). As a comparison, 6 rats were sacrificed at 4 weeks to measure the starting volume of renal cysts (control).

[3] = tested on: human ADPKD cholangiocytes; test: 3-day proliferation assay, human ADPKD cholangiocytes; type: cell-based; details: 3-day proliferation assay (FIG. 5A)
Description: FIG. 5A depicts a human ADPKD 3-day proliferation assay showing decreased proliferation induced by both HDAC6 specific inhibitors, tubastatin-A and tubacin.
as §1
Cholangiocytes were cultured in Collagen-I-coated flasks (BD Biocoat). All cell lines were incubated in NRC Media at 37° C., 5% CO2, 100% humidity. […]

[4] = tested on: biliary cysts freshly isolated from PCK rats; test: 3D-culture cyst growth in collagen matrix; type: cell-based, rat; details: after four days
Experimental: Freshly isolated bile ducts from PCK rats were embedded in a rat-tail type I Collagen matrix (BD Biosciences) and grown in the presence or absence of 10 μmol/L Tubastatin A and 2 μmol/L Tubacin. Images of the growing cysts were taken every day over a period of 5 days and cyst size was measured with the software “Image J” (National Institute of Health). The circumferential areas for each cystic structure was compared to day 0 to calculate percentages of growth as previously described (see Muff et al. Development and characterization of a cholangiocyte cell line from the PCK rat, an animal model of Autosomal Recessive Polycystic Kidney Disease, Lab Invest 2006, 86:940-950; Masyuk et al. Octreotide inhibits hepatic cystogenesis in a rodent model of polycystic liver disease by reducing cholangiocyte adenosine 3′,5′-cyclic monophosphate, Gastroenterology (2007) 132:1104-1116 27; Lee et al. MicroRNA15a modulates expression of the cell-cycle regulator Cdc25A and affects hepatic cystogenesis in a rat model of polycystic kidney disease, J. Clin. Invest. (2008) 118:3714-3724 28. Gradilone et al. Activation of Trpv4 reduces the hyperproliferative phenotype of cystic cholangiocytes from an animal model of ARPKD, Gastroenterology (2010) 139:304-314 e302).

acetylated α-tubulin = test: Western blot, acetylated α-tubulin in PCK cholangiocytes; type: cell-based, rat
Experimental: (§2) PCK cholangiocytes were treated with 20 μM Tubastatin A or 2 μM Tubacin, lysed and used for Western blotting. […] Actin was used as a loading control. FIG. 3B depicts representative images of Western blots (n=3) showing HDAC6 inhibitors increase the amount of phospho- and acetyl-β-catenin compared to untreated cells using total-β-catenin as loading control. […] (*p<0.05).
Protein isolated from cultured control rat and PCK rat cholangiocytes were analyzed. Cells were scrapped, resuspended in Phosphate Buffered Saline (PBS) with Protease Inhibitors, Sodium Orthovanadate and Phenylmethanesulfonylfluoride (PMSF), sonicated and equal amounts of sample protein were diluted in Laemmli Sample Buffer (Biorad) and mercaptoethanol. […]
(§3) For a better understanding of the mechanisms that are responsible for the inhibition of PCK cholangiocyte proliferation and cyst growth in 3D culture, cultured PCK cholangiocytes were treated with tubastatin-A and tubacin and the amount of acetylated α-tubulin and β-catenin was determined by Western blotting.

β-catenin [5] = test: Western blot, β-catenin (total, phospho-, acetyl-) in PCK cholangiocytes; type: cell-based, rat
Experimental: as §2
(§4) Protein isolated from cultured control rat and PCK rat cholangiocytes were analyzed. Cells were scrapped, resuspended in Phosphate Buffered Saline (PBS) with Protease Inhibitors, Sodium Orthovanadate and Phenylmethanesulfonylfluoride (PMSF), sonicated and equal amounts of sample protein were diluted in Laemmli Sample Buffer (Biorad) and mercaptoethanol. After SDS polyacrylamide gel electrophoresis, SDS-PAGE, proteins were transferred to nitrocellulose membranes, blocked, and then incubated with the following primary antibodies: HDAC6 (Santa Cruz Biotechnology, D-11, 1:500), acetylated-α-tubulin (Sigma Aldrich, 1:2000), β-catenin (Cell Signaling Technology, (D10A8) XP® Rabbit mAb; 1:1000), Phospho-β-Catenin (Ser33/37/Thr41) (Cell Signaling Technology, 1:1000), acetyl-β-catenin (Cell Signaling Technology, 1:1000), c-myc (Santa Cruz Biotechnology, 1:500), cyclin D1 (Santa Cruz Biotechnology, 1:500), and actin (Sigma Aldrich, 1:5000). The membranes were incubated overnight at 4° C., washed and incubated for 1 hour at room temperature with horseradish perodixase-conjugated (1:5000, Invitrogen) or IRdye 680 or 800 (1:15000, Odyssey) corresponding secondary antibody. The ECL system or Odyssey Licor Scanner was used for protein detection and the Gel-Pro Analyzer 6.0 software was used for densitometry analysis.
as §3

cyclin D1 = test: Western blot, cyclin D1 in PCK cholangiocytes; type: cell-based, rat; details: 2 μM Tubacin
Experimental: as §2
as §4, with “The membranes were incubated overnight at 4° C., washed and incubated for 1 hour at room temperature with horseradish perodixase-conjugated (1:5000, Invitrogen) or IRdye 680 or 800 (1:15000, Odyssey) corresponding secondary antibody. The ECL system or Odyssey Licor Scanner was used for protein detection and the Gel-Pro Analyzer 6.0 software was used for densitometry analysis.” left out

c-myc = test: Western blot, c-myc in PCK cholangiocytes; type: cell-based, rat; details: 2 μM Tubacin
Experimental: as §2
as §4, with “The membranes were incubated overnight at 4° C., washed and incubated for 1 hour at room temperature with horseradish perodixase-conjugated (1:5000, Invitrogen) or IRdye 680 or 800 (1:15000, Odyssey) corresponding secondary antibody. The ECL system or Odyssey Licor Scanner was used for protein detection and the Gel-Pro Analyzer 6.0 software was used for densitometry analysis.” left out

histone-3 = test: Western blot, histone-3 acetylation in PCK cholangiocytes; type: cell-based, rat; details: 2 μM Tubacin
Experimental: as §2
as §4, with “The membranes were incubated overnight at 4° C., washed and incubated for 1 hour at room temperature with horseradish perodixase-conjugated (1:5000, Invitrogen) or IRdye 680 or 800 (1:15000, Odyssey) corresponding secondary antibody. The ECL system or Odyssey Licor Scanner was used for protein detection and the Gel-Pro Analyzer 6.0 software was used for densitometry analysis.” left out

β-catenin mRNA = test: RT-PCR, β-catenin mRNA in PCK cholangiocytes; type: cell-based, rat; details: 2 uM tubacin; over time
Experimental: as §2
RNA was isolated from control and PCK rat cholangiocytes with TRIZOL reagent (Invitrogen). cDNA was obtained using First Srand cDNA Synthesis (Invitrogen) reagents and HDAC6 primers (forward primer: 5′-TCAGCGCAGTCTTATGGATG-3′ (SEQ ID NO.: 1); reverse primer: 5′-GCGGTGGATGGAGAAATAGA-3′, SEQ ID NO.: 2) were purchased from Integrated DNA Technologies. β-catenin mRNA expression was analyzed using the TaqMan Gene Expression Assay (Assay ID Rn00584431_g1) following the manufacturer directions. The samples were normalized to 18S rRNA.

[6] = 2 μM Tubacin, total-β-catenin as loading control

In the case of `O=C(CCCCCCNC(=O)c1cnc(N(c2ccccc2)c2ccccc2)nc1)NO` [Compound A-1, 2-(diphenylamino)-N-(7-(hydroxyamino)-7-oxoheptyl)pyrimidine-5-carboxamide], the PCK cells proliferation (PCK rat cholangiocytes; 2, 4, and 8 μmol/L (FIG. 4A)) is reported as “inhibited by the Compound A-1 in a dose dependent manner”, the “proliferation of normal cells” value [1] is reported as “no significant effect” and the “β-catenin expression in PCK cells (fluorescence quantification)” value (β-catenin [2]) is reported as “reduced β-catenin expression”. The “reduction of liver fibrosis” value (PCK rat; p<0.001) was 30.5%, the “reduction of kidney cyst area” value (PCK rat; vs vehicle) was 39.0% and the “reduction of liver cyst area” value (PCK rat; vs vehicle) was 28.4%.

For `O=C(CCCCCCNC(=O)c1cnc(N(c2ccccc2)c2ccccc2Cl)nc1)NO` [Compound B-1, 2-((2-chlorophenyl)(phenyl)amino)-N-(7-(hydroxyamino)-7-oxoheptyl)pyrimidine-5-carboxamide], the “cyst formation in vivo (volume of cysts in the kidneys)” value (Male PKC-1 rats) was “decrease cyst formation”.

`O=C(NO)c1cnc(NC2(c3ccccc3)CCC(F)(F)CC2)nc1` [Compound C-2] was tested, and the “cyst formation in vivo (volume of cysts in the kidneys)” value (Male PKC-1 rats) was “decrease cyst formation”.

`O=C(CCCCCCC(=O)Nc1ccc([C@H]2O[C@@H](CSc3nc(-c4ccccc4)c(-c4ccccc4)o3)C[C@@H](c3ccc(CO)cc3)O2)cc1)NO` [tubacin] was tested, and the “reduction of PCK cholangiocyte proliferation” value (PCK rat cholangiocytes; tubacin, 3 day time period (FIG. 2B)) was 2.94 folds, the “decrease of proliferation of cultured human ADPKD cholangiocytes” value [3] was 16% and the “reduction of cyst growth compared to untreated cysts” value ([4]; 2 μM) was 125%. The “increase of acetylated α-tubulin level compared to untreated cells” value (acetylated α-tubulin; 2 μM Tubacin) was 2.3 fold, the “decrease of β-catenin level” value (β-catenin [5]; 2 μM Tubacin) was 5 fold and the “amount of acetyl-β-catenin compared to untreated cells” value (β-catenin [5]; [6]) was “increase”. For the same compound, the “amount of phospho-β-catenin compared to untreated cells” value (β-catenin [5]; [6]) was “increase”, the “β-catenin protein expression over time” value (β-catenin [5]; 2 uM tubacin) was “decrease in β-catenin protein expression over time” and the “cyclin D1 level” value (cyclin D1) was “decreasing”. For the same compound, the c-myc level (c-myc) was “decreasing”, the “acetylation levels of histone-3” value (histone-3) was “remained unaffected” and the “β-catenin mRNA” value (β-catenin mRNA) was “remained stable”.

For `CN1CCc2c(c3ccccc3n2Cc2ccc(C(=O)NO)cc2)C1` [tubastatin A], the “reduction of proliferation of PCK cholangiocytes” value (“reduction … of PCK cholangiocytes” for short) (PCK rat cholangiocytes; 5 μM) was 2.5 folds, the “reduction … of PCK cholangiocytes” value (PCK rat cholangiocytes; 10 μM) was 3.5 folds and the “reduction … of PCK cholangiocytes” value (PCK rat cholangiocytes; 20 μM) was 4.15 folds. For the same compound, the “decrease of proliferation of cultured human ADPKD cholangiocytes” value [3] was 85%, the “reduction of cyst growth compared to untreated cysts” value ([4]; 10 μM) was 131% and the “increase of acetylated α-tubulin level compared to untreated cells” value (acetylated α-tubulin; 20 μM Tubastatin A) was 13 fold. The “decrease of β-catenin level” value (β-catenin [5]; 20 μM Tubastatin A) was 2.2 fold.

— US10660890B2, “Treatment of polycystic diseases with an HDAC6 inhibitor” (NATIONAL INSTITUTES OF HEALTH (NIH), U.S. DEPT. OF HEALTH …, priority 2013, dated 2020)
